Where two headings read alike, the source gives them in different places.
Experiments:
[1] = system: Methylobacter vinelandii (CRL M5Y NRRL B-11,218); assay: Microbiological oxidation of cyclic hydrocarbons by methane-grown washed cells (Example 7); format: cell-based; conditions: aerobic
Method: A 0.5 ml sample of each washed cell suspension (2 mg cells) was put into 10 ml vials at 4° C. which were sealed with a rubber cap. The gaseous phase of the vials was removed with vacuum and then was replaced with a gas mixture of the oxidative substrate (e.g., methane) and oxygen at a 1:1 v/v ratio. […] Samples of product (3 μl) were withdrawn periodically with a microsyringe and the products were analyzed by gas chromatography (ionization flame detector column).
Methylobacter vinelandii (CRL M5Y NRRL B-11,218) was aerobically grown in a methane-containing nutrient medium in the manner described in Example 1 and the methane-grown washed cells were contacted under aerobic conditions with cyclohexane, benzene and toluene.

[2] = system: P(40) particulate fraction of Methylosinus sp. (CRL-15, NRRL B-11,202); assay: Substrate competition: effect of methane on propylene epoxidizing activity of P(40) fraction (Table XIII); format: biochemical; conditions: gaseous substrate as named
Method: The oxidation of methane and propylene by particulate [(P)40 and (P)80] fractions and soluble [S(80)] fraction was measured at 30° C. by estimating the production of methanol and propylene oxide, respectively. The reaction mixtures contained in 1.0 ml: 150 mM potassium phosphate buffer, pH 7.0 containing 5 mM MgC2, 0.6 ml; 10 μmoles NADH, and cellular fraction.
Reaction mixtures were contained in 10 ml vials at 4° C. Vials were sealed with rubber caps. The gaseous phase in the vials was removed using vacuum and then was replaced with a gas mixture of methane or propylene and oxygen at a 1:1, v/v ratio. Oxidation of other gaseous n-alkanes and n-alkenes was examined as described above. For liquid substrates, 10 μ of substrate was used directly.
The hydroxylation of methane and the epoxidation of propylene by particulate fractions of methane-utilizing bacteria required oxygen and NADH. The question of whether the same or a similar enzyme was involved in the oxidation of both substrates was examined by substrate competition experiments. The experiment consisted of determining the effect of methane on the oxidation of propylene to propylene oxide by the P(40) particulate fraction of Methylosinus sp. (CRL-15, NRRL B-11,202).

[3] = system: P(40) particulate fraction of Methylosinus sp. (CRL-15, NRRL B-11,202); assay: Stoichiometry of propylene epoxidation and methane hydroxylation by P(40) fraction (Table XIV); format: biochemical; conditions: 5.0 μmoles substrate; for Product formed: gas chromatography; for O2 consumed: polarographic; for NADH oxidized: spectrophotometric
Method: The particulate P(40) fraction of Methylosinus sp. (CRL-15, NRRL B-11,202) was used to determine the stoichiometry of hydroxylation and epoxidation reactions. The stoichiometry of methane or propylene-dependant NADH oxidation, oxygen consumption and product formation was approximately 1:1:1 Table XIV. This is consistent with methane or propylene oxygenation being catalyzed by a mono-oxygenase.
^a Under identical condition of reaction, the estimation of NADH
oxidized was carried out spectrophotometrically, the estimation of oxygen
consumed was measured polarographically, and the estimation of product
formed was carried out by gas chromatography.

[4] = system: P(40) particulate fraction of Methylosinus sp. (CRL-15, NRRL B-11,202); assay: Oxidation of n-alkenes and n-alkanes by P(40) particulate fraction (Table X); format: biochemical; conditions: P(40) fraction, 30° C.
[5] = system: purified secondary alcohol dehydrogenase; assay: Substrate and electron acceptor specificity of purified yeast secondary alcohol dehydrogenase; format: biochemical, Pichia sp. NRRL Y-11,328; conditions: examined spectrophotometrically
Method: Large scale cultures of Pichia sp. NRRL Y-11,328 were grown with aeration at 30° C. in a 14-liter New Brunswick f fermentor in a mineral salt medium containing methanol (0.4%, v/v) as the sole carbon source. The cells (200 g., wet weight) were suspended in 50 mm sodium phosphate buffer, pH 7.0, containing 1 mM dithiothreitol (buffer A), and crude extracts were prepared as described previously. To the crude extracts, 18 ml. of protamine sulfate solution [2% solution in 0.1 M tris (hydroxymethyl) aminomethane (tris) base] was added dropwise with continuous stirring. After standing for 30 min., the extracts were centrifuged at 20,000 x g. for 60 min. The supernatant solution was fractioned with solid ammonium sulfate. Extracts were brought to 50% of saturation with respect to ammonium sulfate by addition of 313 g. of the salt per liter of extract. Precipitated proteins was removed by centrifugation, and 137 g. of ammonium sulfate was added per liter of the supernatant liquid to bring it to 70% of saturation. Material precipitating between 50 and 70% of saturation was collected by centrifugation and dissolved in buffer A. This preparation was dialyzed overnight against buffer A, and the dialyzed material was applied to a DEAE-cellulose column (5×40 cm) that had been equilibrated with buffer A. The sample was washed with 200 ml. of buffer A and eluted with 2 liters of buffer A that contained NaCl in a linear gradient running from a concentration of 0 to 0.5 M. Fractions of 15 ml. were collected. Fractions containing secondary alcohol dehydrogenase activity were pooled and were termed DEAE-cellulose eluate. The DEAE-cellulose eluate was concentrated by ammonium sulfate fractionation.
Secondary alcohol dehydrogenase activity was measured spectrophotometrically at 340 nm with a NAD^+ as an electron acceptor. The reaction mixture, in a total 3.0 ml., contained 50 mM phosphate buffer, pH 8.0, 5μmoles NAD^+, crude extracts, and substrate. The reactions were started by addition of 100 μof 0.1 M substrate and the rate of NAD^+ reduction was measured. Protein concentration was determined by the method of Lowry et al.
The substrate specificity of the purified secondary alcohol dehydrogenase was examined spectrophotometrically.

[6] = system: cell-free extracts of strain ATCC 21439; conditions: 30° C.
Method: The reaction mixtures 3 ml (1.0 mg protein) were incubated at 30°
C. for 10 min. (exp. 1) and for 20 min. (exp. 2) in the presence of 1.0
^a Determined gas chromatographically.
^b Determined fluorescence spectrophotometrically. Endogenous
consumption of NAD was corrected.

[7] = system: secondary alcohol dehydrogenase (SADH); assay: Substrate specificity and Michaelis constants of purified SADH; format: biochemical, Pseudomonas sp. ATCC 21439
Method: Secondary alcohol dehydrogenase (SADH) from an obligate methanol utilizer, Pseudomonas sp. ATCC 21439 was purified as follows. […] 0.05 M sodium phosphate buffer, pH 7.0 with 0.5mM dithiothretol (buffer A) and were disrupted sonically (5×1 min.). The crude extract was separated by centrifugation. The crude extract was heat-treated at 50° C. in a water bath for 10 minutes. The resulting precipitate was removed by centrifugation. To the supernatant solution, 25 ml of protamine sulfate solution (2% solution in 0.1 M Tris base) was added dropwise with continuous stirring. After standing for 30 minutes, the extract was centrifuged. The supernatant solution was fractionated with solid ammonium sulfate. […] This DEAE-cellulose eluate was concentrated by ammonium sulfate fractionation. Material precipitating between 30 and 50% ammonium sulfate saturation was collected by centrifugation and dialyzed overnight against A. This fraction was further washed and filtered through an Amicon unit with XM 50 membrane. The concentrated fraction (6 ml) inside the Amicon unit was applied to an Affi-Gel Blue column (0.8 cm ×18 cm) which had been equilibrated with buffer A for affinity chromatography. The column was washed overnight with buffer A (0.18 ml./min.) and then was eluted with buffer A containing 5 mM NAD. Each 1 ml. fraction was collected.
The purified secondary alcohol dehydrogenase enzyme (SADH) may be used directly for converting C3 -C6 secondary alcohols to the corresponding methyl ketones by the procedures described above; however, a source of NAD^+ must be added to the reaction medium. One can determine the NAD-linked secondary alcohol dehydrogenase activity with a fluorescence spectrophotometer (Perkin Elmer, Model MPF 44A) by following the formation of reduced NAD (Ex 340 nm, Em 460 nm). The assay system (3 ml.) will typically contain: sodium phosphate buffer pH 7.0, 150 μmol; NAD 1.0 μmol; a given amount of enzyme preparation; and 20 μmol secondary alcohol. The reaction is started by the addition of secondary alcohol. One unit of SADH enzyme activity represents the reduction of one nmole NAD per minute.

[8] = system: cell suspensions of the strains of C1-utilizers tested; assay: Production of methyl ketones from secondary alcohols by cell suspensions of C1-utilizers (strains tested); format: cell-based; conditions: cell suspensions of C1-utilizers
Description: The substrate specificity for the oxidation of C3 -C6 secondary alcohols by the strains of C1 -utilizers was studied.

[9] = system: purified secondary alcohol dehydrogenase; assay: Stoichiometry of isopropanol and sec-butanol oxidation by the purified secondary alcohol dehydrogenase (Table XXIV); format: biochemical, Pichia sp. NRRL Y-11,328; conditions: substrate 5.7 (isopropanol) or 6.0 (2-butanol) μmoles; for Product formed (acetone or 2-butanone): gas chromatography; for NAD^+ reduced: spectrophotometrically at 340 nm
Method: ^a The estimation of NAD^+ reduced was measured
spectrophotometrically at 340 nm.
^b The estimation of products was detected by gas chromatography as
described in the methods.

[10] = system: cell-free particulate fractions derived from the methylotrophic microorganisms; assay: Inhibition of conversion of C3-C6 n-alkanes to sec. alcohols by cell-free particulate fractions; format: biochemical; conditions: oxygen and NADH
Description: The conditions for preparing the cell suspensions or the cell-free particulate fractions from methane-grown methylotroph microorganisms is the same as described above.

SMILES: Cc1ccccc1 [toluene]
- Oxidative conversion [1]: no oxidative conversion was detected

SMILES: C [Methane]
- Propylene oxide produced [2]: 0 μmoles/hr/mg. protein
- Product formed [3]: 4.2 µmol
- O2 consumed [3]: 4.6 µmol
- NADH oxidized [3]: 4.8 µmol
- Rate of product formation (substrate to epoxide or alcohol) [4]: 4.8 μ moles/hr/mg of protein

SMILES: c1ccccc1 [benzene]
- Oxidative conversion [1]: no oxidative conversion was detected

SMILES: C1CCCCC1 [Cyclohexane]
- Conversion rate to cyclohexanol [1]: 1.5 μmoles/2 hr./mg. protein

SMILES: CCC(C)O (stereo not shown) [2-butanol]
- Oxidation by the purified yeast enzyme (in words) [5]: catalyzed the oxidation
- 2-Butanol consumed ([6]; experiment 1, 10 min.): 260 nmol
- 2-Butanol consumed ([6]; experiment 2, 20 min.): 530 nmol
- NAD consumed ([6]; experiment 2, 20 min.): 540 nmol
- Oxidation by purified SADH (in words) [7]: highest
- Rate of oxidation of secondary alcohols to methyl ketones [8]: higher rates
- Product formed (acetone or 2-butanone) [9]: 5.7 µmol
- NAD^+ reduced [9]: 5.9 µmol

SMILES: CC(C)O [2-propanol]
- Oxidation by the purified yeast enzyme (in words) [5]: catalyzed the oxidation
- Oxidation by purified SADH (in words) [7]: highest
- Rate of oxidation of secondary alcohols to methyl ketones [8]: higher rates
- Product formed (acetone or 2-butanone) [9]: 5.5 µmol
- NAD^+ reduced [9]: 5.4 µmol

SMILES: C=CC [Propylene]
- Propylene oxide produced [2]: 4.3 μmoles/hr/mg. protein
- Product formed [3]: 4.5 µmol
- O2 consumed [3]: 4.8 µmol
- NADH oxidized [3]: 5.0 µmol
- Inhibition of conversion of C3-C6 n-alkanes to sec. alcohols (in words) [10]: inhibit
- Inhibition of conversion of C3-C6 n-alkanes to sec. alcohols (in words) ([10]; listed as propylene): inhibited
- Rate of product formation (substrate to epoxide or alcohol) [4]: 4.1 μ moles/hr/mg of protein
